Data published in patent US12577234B2, “Antagonists of the muscarinic acetylcholine receptor M4” (Vanderbilt University, priority 2017, dated 2026).

Biological target: T1, human mAChR M4 (Homo sapiens, UniProt P08173)
T1 construct: expressed in transfected cells; host or cells: CHO-K1 (ATCC), stably co-expressing chimeric G protein Gqi5
T1 sequence (P08173 1-479): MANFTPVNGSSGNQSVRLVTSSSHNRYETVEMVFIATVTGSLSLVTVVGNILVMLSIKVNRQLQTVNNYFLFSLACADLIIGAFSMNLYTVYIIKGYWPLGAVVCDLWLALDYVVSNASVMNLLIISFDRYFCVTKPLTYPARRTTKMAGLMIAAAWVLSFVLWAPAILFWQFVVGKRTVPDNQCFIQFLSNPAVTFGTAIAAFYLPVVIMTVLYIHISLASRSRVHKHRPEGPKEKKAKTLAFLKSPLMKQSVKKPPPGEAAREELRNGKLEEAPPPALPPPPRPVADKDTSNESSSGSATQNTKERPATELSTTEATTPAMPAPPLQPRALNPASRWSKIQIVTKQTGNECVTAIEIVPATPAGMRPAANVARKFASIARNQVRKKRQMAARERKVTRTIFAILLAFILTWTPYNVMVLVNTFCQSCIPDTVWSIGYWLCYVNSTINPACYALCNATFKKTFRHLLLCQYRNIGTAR
Assay: mAChR M4 cell-based functional assay (calcium mobilization, EC80 acetylcholine), human M4
Conditions: Table 9; for IC50: M4/Gqi5/CHO-K1 cells, decrease of EC80 acetylcholine response; for Emin: human M4, % ACh maximum at 30 μM
Procedure, shortened: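 CHO-K1 cells stably expressing human M4 with chimeric Gqi5; intracellular calcium rise read on FDSS as fluorescence static ratio at 1 Hz. Compounds in 10-point 1:3 dilution series; IC50 taken as concentration-dependent decrease of the EC80 acetylcholine response, four-parameter logistic fit.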

Cc1cnn(C)c1-c1ccc(OCC2C[C@@H]3CN(Cc4ccccn4)C[C@@H]3C2)nn1 (stereo partly drawn) [Compound 89, (3aR,6aS)-5-[[6-(2,4-dimethylpyrazol-3-yl)pyridazin-3-yl]oxymethyl]-2-(2-pyridylmethyl)-3,3a,4,5,6,6a-hexahydro-1H-cyclopenta[c]pyrrole]
IC50: 8080 nM | Emin: 18.1%

Cc1cccnc1CN1C[C@H]2CC(COc3ccc(-c4c(C)cnn4C)nn3)C[C@H]2C1 (stereo partly drawn) [Compound 90, (3aR,6aS)-5-[[6-(2,4-dimethylpyrazol-3-yl)pyridazin-3-yl]oxymethyl]-2-[(3-methyl-2-pyridyl)methyl]-3,3a,4,5,6,6a-hexahydro-1H-cyclopenta[c]pyrrole]
IC50: 1430 nM | Emin: 7.98%

Cc1cnn(C)c1-c1ccc(OCC2C[C@@H]3CN(Cc4ccc5c(c4)OCO5)C[C@@H]3C2)nn1 (stereo partly drawn) [Compound 91, (3aR,6aS)-2-(1,3-benzodioxol-5-ylmethyl)-5-[[6-(2,4-dimethylpyrazol-3-yl)pyridazin-3-yl]oxymethyl]-3,3a,4,5,6,6a-hexahydro-1H-cyclopenta[c]pyrrole]
IC50: 371 nM | Emin: 4.18%

Cc1nn(C)cc1-c1ccc(OCC2C[C@@H]3CN(CCC(C)(C)C)C[C@@H]3C2)nn1 (stereo partly drawn) [Compound 92, (3sR,6aS)-2-(3,3-dimethylbutyl)-5-[[6-(1,3-dimethylpyrazol-4-yl)pyridazin-3-yl]oxymethyl]-3,3a,4,5,6,6a-hexahydro-1H-cyclopenta[c]pyrrole]
IC50: 58.3 nM | Emin: 4.01%

Cc1nn(C)cc1-c1ccc(OCC2C[C@@H]3CN(CC45CC6CC(CC(C6)C4)C5)C[C@@H]3C2)nn1 (stereo partly drawn) [Compound 93, (3aR,6aS)-2-(1-adamantylmethyl)-5-[[6-(1,3-dimethylpyrazol-4-yl)pyridazin-3-yl]oxymethyl]-3,3a,4,5,6,6a-hexahydro-1H-cyclopenta[c]pyrrole]
IC50: 82.1 nM | Emin: 4.05%

CCC(C)CN1C[C@H]2CC(COc3ccc(-c4cn(C)nc4C)nn3)C[C@H]2C1 (stereo partly drawn) [Compound 95, (3aR,6aS)-5-[[6-(1,3-dimethylpyrazol-4-yl)pyridazin-3-yl]oxymethyl]-2-(2-methylbutyl)-3,3a,4,5,6,6a-hexahydro-1H-cyclopenta[c]pyrrole]
IC50: 659 nM | Emin: 4.74%

CCCC(C)CN1C[C@H]2CC(COc3ccc(-c4cn(C)nc4C)nn3)C[C@H]2C1 (stereo partly drawn) [Compound 96, (3aR,6aS)-5-[[6-(1,3-dimethylpyrazol-4-yl)pyridazin-3-yl]oxymethyl]-2-(2-methylpentyl)-3,3a,4,5,6,6a-hexahydro-1H-cyclopenta[c]pyrrole]
IC50: 301 nM | Emin: 4.62%

Cc1nn(C)cc1-c1ccc(OCC2C[C@@H]3CN(CC4CCCCC4)C[C@@H]3C2)nn1 (stereo partly drawn) [Compound 97, (3aR,6aS)-2-(cyclohexylmethyl)-5-[[6-(1,3-dimethylpyrazol-4-yl)pyridazin-3-yl]oxymethyl]-3,3a,4,5,6,6a-hexahydro-1H-cyclopenta[c]pyrrole]
IC50: 167 nM | Emin: 4.44%

Cc1nn(C)cc1-c1ccc(OCC2C[C@@H]3CN(CC4CCOCC4)C[C@@H]3C2)nn1 (stereo partly drawn) [Compound 98, (3aR,6aS)-5-[[6-(1,3-dimethylpyrazol-4-yl)pyridazin-3-yl]oxymethyl]-2-(tetrahydropyran-4-ylmethyl)-3,3a,4,5,6,6a-hexahydro-1H-cyclopenta[c]pyrrole]
IC50: 2230 nM | Emin: 8.70%

Cc1nn(C)cc1-c1ccc(OCC2C[C@@H]3CN(CC4CCCOC4)C[C@@H]3C2)nn1 (stereo partly drawn) [Compound 99, (3aR,6aS)-5-[[6-(1,3-dimethylpyrazol-4-yl)pyridazin-3-yl]oxymethyl]-2-(tetrahydropyran-3-ylmethyl)-3,3a,4,5,6,6a-hexahydro-1H-cyclopenta[c]pyrrole]
IC50: 2490 nM | Emin: 7.75%

Cc1nn(C)cc1-c1ccc(OCC2C[C@@H]3CN(Cc4ccccc4)C[C@@H]3C2)nn1 (stereo partly drawn) [Compound 100, (3aR,6aS)-2-benzyl-5-[[6-(1,3-dimethylpyrazol-4-yl)pyridazin-3-yl]oxymethyl]-3,3a,4,5,6,6a-hexahydro-1H-cyclopenta[c]pyrrole]
IC50: 2380 nM | Emin: 5.92%

Cc1nn(C)cc1-c1ccc(OCC2C[C@@H]3CN(Cc4ccccc4F)C[C@@H]3C2)nn1 (stereo partly drawn) [Compound 101, (3aR,6aS)-5-[[6-(1,3-dimethylpyrazol-4-yl)pyridazin-3-yl]oxymethyl]-2-[(2-fluorophenyl)methyl]-3,3a,4,5,6,6a-hexahydro-1H-cyclopenta[c]pyrrole]
IC50: 2540 nM | Emin: 6.60%

Cc1nn(C)cc1-c1ccc(OCC2C[C@@H]3CN(Cc4ccc(F)cc4)C[C@@H]3C2)nn1 (stereo partly drawn) [Compound 102, (3aR,6aS)-5-[[6-(1,3-dimethylpyrazol-4-yl)pyridazin-3-yl]oxymethyl]-2-[(4-fluorophenyl)methyl]-3,3a,4,5,6,6a-hexahydro-1H-cyclopenta[c]pyrrole]
IC50: 2580 nM | Emin: 6.62%

Cc1nn(C)cc1-c1ccc(OCC2C[C@@H]3CN(Cc4ccccn4)C[C@@H]3C2)nn1 (stereo partly drawn) [Compound 103, (3aR,6aS)-5-[[6-(1,3-dimethylpyrazol-4-yl)pyridazin-3-yl]oxymethyl]-2-(2-pyridylmethyl)-3,3a,4,5,6,6a-hexahydro-1H-cyclopenta[c]pyrrole]
IC50: 9870 nM | Emin: 14.7%

Cc1cccnc1CN1C[C@H]2CC(COc3ccc(-c4cn(C)nc4C)nn3)C[C@H]2C1 (stereo partly drawn) [Compound 104, (3aR,6aS)-5-[[6-(1,3-dimethylpyrazol-4-yl)pyridazin-3-yl]oxymethyl]-2-[(3-methyl-2-pyridyl)methyl]-3,3a,4,5,6,6a-hexahydro-1H-cyclopenta[c]pyrrole]
IC50: 1530 nM | Emin: 6.78%

Cc1nn(C)cc1-c1ccc(OCC2C[C@@H]3CN(Cc4ccc5c(c4)OCO5)C[C@@H]3C2)nn1 (stereo partly drawn) [Compound 105, (3aR,6aS)-2-(1,3-benzodioxol-5-ylmethyl)-5-[[6-(1,3-dimethylpyrazol-4-yl)pyridazin-3-yl]oxymethyl]-3,3a,4,5,6,6a-hexahydro-1H-cyclopenta[c]pyrrole]
IC50: 329 nM | Emin: 5.63%

CC(C)(C)CCN1C[C@H]2CC(COc3ccc(-c4cc(F)ccc4Cl)nn3)C[C@H]2C1 (stereo partly drawn) [Compound 106, (3aR,6aS)-5-[[6-(2-chloro-5-fluoro-phenyl)pyridazin-3-yl]oxymethyl]-2-(3,3-dimethylbutyl)-3,3a,4,5,6,6a-hexahydro-1H-cyclopenta[c]pyrrole]
IC50: 143 nM | Emin: 3.60%

Fc1ccc(Cl)c(-c2ccc(OCC3C[C@@H]4CN(CC56CC7CC(CC(C7)C5)C6)C[C@@H]4C3)nn2)c1 (stereo partly drawn) [Compound 107, (3aR,6aS)-2-(1-adamantylmethyl)-5-[[6-(2-chloro-5-fluoro-phenyl)pyridazin-3-yl]oxymethyl]-3,3a,4,5,6,6a-hexahydro-1H-cyclopenta[c]pyrrole]
IC50: 1090 nM | Emin: 5.03%

Fc1ccc(Cl)c(-c2ccc(OCC3C[C@@H]4CN(CC5CC6C=CC5C6)C[C@@H]4C3)nn2)c1 (stereo partly drawn) [Compound 108, (3aR,6aS)-2-(5-bicyclo[2.2.1]hept-2-enylmethyl)-5-[[6-(2-chloro-5-fluoro-phenyl)pyridazin-3-yl]oxymethyl]-3,3a,4,5,6,6a-hexahydro-1H-cyclopenta[c]pyrrole]
IC50: 134 nM | Emin: 3.90%

CCC(C)CN1C[C@H]2CC(COc3ccc(-c4cc(F)ccc4Cl)nn3)C[C@H]2C1 (stereo partly drawn) [Compound 109, (3aR,6aS)-5-[[6-(2-chloro-5-fluoro-phenyl)pyridazin-3-yl]oxymethyl]-2-(2-methylbutyl)-3,3a,4,5,6,6a-hexahydro-1H-cyclopenta[c]pyrrole]
IC50: 583 nM | Emin: 4.62%

CCCC(C)CN1C[C@H]2CC(COc3ccc(-c4cc(F)ccc4Cl)nn3)C[C@H]2C1 (stereo partly drawn) [Compound 110, (3aR,6aS)-5-[[6-(2-chloro-5-fluoro-phenyl)pyridazin-3-yl]oxymethyl]-2-(2-methylpentyl)-3,3a,4,5,6,6a-hexahydro-1H-cyclopenta[c]pyrrole]
IC50: 773 nM | Emin: 4.60%

Fc1ccc(Cl)c(-c2ccc(OCC3C[C@@H]4CN(CC5CCCCC5)C[C@@H]4C3)nn2)c1 (stereo partly drawn) [Compound 111, (3aR,6aS)-5-[[6-(2-chloro-5-fluoro-phenyl)pyridazin-3-yl]oxymethyl]-2-(cyclohexylmethyl)-3,3a,4,5,6,6a-hexahydro-1H-cyclopenta[c]pyrrole]
IC50: 443 nM | Emin: 3.62%

Fc1ccc(Cl)c(-c2ccc(OCC3C[C@@H]4CN(CC5CCOCC5)C[C@@H]4C3)nn2)c1 (stereo partly drawn) [Compound 112, (3aR,6aS)-5-[[6-(2-chloro-5-fluoro-phenyl)pyridazin-3-yl]oxymethyl]-2-(tetrahydropyran-4-ylmethyl)-3,3a,4,5,6,6a-hexahydro-1H-cyclopenta[c]pyrrole]
IC50: 609 nM | Emin: 4.59%
